From US20060003936A1, “Method for modulating the production of a selected protein in vivo” (priority 2002, published 2006)

What was measured:
[1] = test system: HCT-8, HCT-116 and C85 colorectal cancer cells transduced with SFG-DHFR/HSV-TK; assay: GCV sensitivity of transduced colon cancer cells; assay type: cell-based, human
Method: (§1) Retrovirus-producing cell lines were generated by transfection of DHFR-HSV1-TK plasmid in parental GP+envAM12 cells. Transfection was performed three times at cell densities of 30%, 50% and 75% using Superfect (Qiagen, Chatsworth, Calif.) as described by the manufacturer. Clones of the retrovirus were selected in 150 nM TMTX. Viral titers were determined against NIH 3T3 cells. Retrovirus-producing AM12V cells were grown in medium without antifolate to a density of 60-80%; the day before infection, the mdeium was changed. Viral transduction was performed by infecting colon cancer cells plated 48 hours before infection in 10 cm dishes. Four single virus exporsures with the desired multiplicity of infection (moi), each of 6 hour duration, were carried out. For each single exposure, fresh AM12V supernatant was filtered through a 0.45 μm cellulose acetate filter and supplemented with polybrene (8 μg/ml). The 2-hour viral transduction was performedin 6 well plates.
(§2) The transduced cells were treated with varying amounts of TMTX (10, 100 and 1000 μM) and levels of fusion protein were detected by Western blotting using either an anti-HSV-TK antibody or an anti-human DHFR antibody.
Three colorectal cancer cells lines (HCT-8, HCT-116 and a cell line, C85, recently established from a patient with liver metastasis) were transduced with the SFG-DHFR/HSV-TK fusion vector of Example 1. […]

[2] = test system: HCT-8 cells (8LT, 8HT, 8LT-CT); assay: GCV and TMTX cytotoxicities on transduced HCT-8 cells; assay type: cell-based, human
Method: Bulk transduction of HCT-116 and HCT-8 was carried out with an moi of 30 for 24 hours or an moi of 2.5 for 2 hours to produce cell lines 116HT and 116LT, and 8HT and 8LT, respectively.
GCV amd TMTX cytotoxicities were measured on the transduced cells.

[3] = test system: HCT-116 cells (116LT, 116HT); assay: GCV and TMTX cytotoxicities on transduced HCT-116 cells; assay type: cell-based, human
Method: FIGS. 7A-D show GCV sensitivty and TMTX resisatnce in parental, tranduced and TMTX exposed colon cancer cells of the HCT-116 and HCT-8 cells lines. Bulk transduction of HCT-116 and HCT-8 was carried out with an moi of 30 for 24 hours or an moi of 2.5 for 2 hours to produce cell lines 116HT and 116LT, and 8HT and 8LT, respectively. Successful gene transfer and transgene expression was confirmed by PCR and Western blotting. […] Infection of 8LT was not detectable with the assay used.
GCV amd TMTX cytotoxicities were measured on the transduced cells. […] (FIGS. 7A and C). This finding correlates with observed levels of fusion protein expression in these cells.

[4] = test system: tumors derived from 8LT-CT cells; assay: PET imaging of 124I-FIAU uptake in transduced tumors; assay type: in vivo, rat; settings: three cycles of 10 mg/kg TMTX, three times daily for three days per cycle, 7 treated and 7 control rats
Method: In a second set of experiments, tumors derived from 8LT-CT and parental HCT-8 cells were evaluated by in vivo imaging. Before the imaging, each animal received three cycles of 10 mg/kg of TMTX, three times daily for three days per cycle. Using PET and the tracer ^124I-FIAU an increase in tumor-signal intensity in TMTX-treated rats was observed.

[5] = molecular target: T1, DHFR-HSV1 TK fusion protein (Homo sapiens, UniProt P00374, F32S/L23F); assay: Western blot of DHFR-HSV-TK fusion protein in transduced colon cancer cells treated with antifolate; assay type: cell-based
T1 construct: HSV1 thymidine kinase (fusion partner); expressed in transfected cells; host or cells: HCT-8, HCT-116 and C85 human colorectal cancer cells, retrovirally transduced with SFG-DHFR/HSV-TK
T1 sequence (P00374 other isoform, or with tags, fused parts or gaps L23F/F32S): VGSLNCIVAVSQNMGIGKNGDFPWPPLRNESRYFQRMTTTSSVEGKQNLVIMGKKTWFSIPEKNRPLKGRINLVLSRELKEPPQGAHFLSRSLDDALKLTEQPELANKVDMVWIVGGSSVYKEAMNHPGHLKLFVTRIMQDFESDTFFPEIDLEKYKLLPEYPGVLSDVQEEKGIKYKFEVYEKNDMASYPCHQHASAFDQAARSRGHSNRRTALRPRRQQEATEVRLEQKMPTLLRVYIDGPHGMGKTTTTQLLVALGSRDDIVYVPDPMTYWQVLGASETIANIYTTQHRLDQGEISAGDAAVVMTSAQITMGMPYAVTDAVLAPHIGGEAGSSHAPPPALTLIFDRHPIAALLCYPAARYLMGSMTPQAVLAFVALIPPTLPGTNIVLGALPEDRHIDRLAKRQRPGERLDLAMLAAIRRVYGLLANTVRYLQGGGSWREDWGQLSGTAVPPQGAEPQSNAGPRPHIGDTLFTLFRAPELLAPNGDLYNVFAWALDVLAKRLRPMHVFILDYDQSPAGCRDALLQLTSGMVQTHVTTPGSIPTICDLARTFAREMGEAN
Method: as §1, §2
Three colorectal cancer cells lines (HCT-8, HCT-116 and a cell line, C85, recently established from a patient with liver metastasis) were transduced with the SFG-DHFR/HSV-TK fusion vector of Example 1. Transduction was verified by PCR using transgene specific primers and elevation of DHFR-HSVTK mRNA and protein expression.

[6] = test system: DHFR-EGFP fusion protein; assay: Fluorescence microscopy of EGFP expression in transfected GP+envAM12 cells; assay type: cell-based
Method: Transfections of parental GP+envAM12 cells (Markowitz et al., Virology 167: 400-405 (1988)) with EGFP-containing SFG-plasmids was carried out using DOTAP transfecting reagent (N-{1-(2,3-dioleyloxy)propyl]-N,N,N,-trimethylammonium methyl sulfate, Roche Molecular Biochemicals). Cells transfected with EGFP-expressing vectors were cultrued for at least 12 days and subsequently sorted for EGFP-positive cells using an FACS Vantage SE cell sorter (Becton Dickinson). For fluorescence microscopy, these cells were grown in T25 flasks. Confluent cells were cultured in fresh media with or without TMTX. Fluorescent images of randomly selected areas of the monolayer were taken with a Zeiss Axlovert S100 microscope.

[7] = test system: DHFR-HSV1 TK fusion protein; assay: DHFR-HSV1 TK fusion protein level in tumor tissue of treated rats; assay type: in vivo, rat; settings: rats with flank tumors; 10 mg/kg once daily for three days or single 100 mg/kg; vs water-treated controls
Method: Rats bearing flank tumors were treated with 10 mg/kg of TMTX for three days (once daily), or with a single high dose of 100 mg/kg. The levels of DHFR-HSV1 TK fusion protein in the tumor tissue of antifolate treated rats, as well as in water-treated controls were analyzed. […] The mean increase was at least 2-fold.

**Q.** Which “increase in sensitivity to GCV” value ([1]; transduced cells after cycles of nine day exposures to increasing TMTX, vs non-transduced cells) does the source give for `Nc1nc(O)c2ncn(COC(CO)CO)c2n1` [GCV, gancyclovir] here?
**A.** The value was 250 fold.

**Q.** What about the “sensitivity to GCV” value ([1]; transduced cells compared to unselected or untransduced cells) of the same compound?
**A.** Its value is “increased sensitivity”.

**Q.** What about the GCV cytotoxicity ([2]; 8HT cells) of the same compound?
**A.** The GCV cytotoxicity was “GCV sensitivity”.

**Q.** And the “increase in GCV sensitivity” value ([2]; HCT-8 cells treated chronically with increasing concentrations of TMTX (8LT-CT))?
**A.** Its value is 250 fold.

**Q.** What about the “GCV cytotoxicity compared with parental cell line” value ([3]; 116HT cells) of the same compound?
**A.** The value was “higher”.

**Q.** And the “GCV cytotoxicity compared with parental cell line” value ([3]; 116LT cells)?
**A.** The value was “moderate”.

**Q.** What does the source list for `COc1cc(NCc2ccc3nc(N)nc(N)c3c2C)cc(OC)c1OC` [TMTX, trimetrexate]?
**A.** 124I-FIAU accumulation in transduced tumor tissue vs untreated controls [4]: 2.6 fold; induction of expression of the DHFR-HSV1 TK fusion protein ([5]; concentration range 10^−2 to 1 μM): dose-dependent; fusion protein levels ([5]; high concentrations (1000 μM), without an increase in mRNA): transient increase in fusion protein levels; fusion protein expression (Western blot) ([5]; transduced colon cancer cells, TMTX 10, 100 and 1000 μM, anti-HSV-TK or anti-human DHFR antibody): upregulation of fusion protein expression was observed; TMTX cytotoxicity ([2]; 8HT cells): TMTX resistance; expression of DHFR-EGFP fusion protein ([6]; DHFR-EGFP fusion vector, 1 μM, durable at 24 and 48 hours): increased; expression of EGFP ([6]; plasmids expressing DHFR and EGFP separated by IRES, or just EGFP): not increased; mean increase of DHFR-HSV1 TK fusion protein in tumor tissue [7]: at least 2 fold; TMTX resistance compared with parental cell line ([3]; 116HT cells): higher; TMTX resistance compared with parental cell line ([3]; 116LT cells): moderate

**Q.** With `COc1cc([C@@H]2c3cc4c(cc3[C@@H](O[C@@H]3O[C@@H]5CO[C@@H](C)O[C@H]5[C@H](O)[C@H]3O)[C@H]3COC(=O)[C@H]23)OCO4)cc(OC)c1O` [etoposide] as the compound, how does the “induction of the fusion protein” value ([5]; treatment of cells, concentration not given) read?
**A.** The value was “did not cause induction”.
